Like-named read-outs stand apart in the source and are kept apart here.
Experiments:
[1] = tested on: wild oat (Avena fatua) (AVEFA); assay: post-emergent herbicidal test, wild oat; assay type: in vivo; conditions: Avena fatua, post-emergence, read-out: AVEFA percent control
Text: (§1) Seeds of several different weed species were planted in sandy loam soil containing only trace organic matter. Propagules were sown in individuals rows using one species per row across the width of an aluminum flat (19.5×9.5×6 cm). The grass weeds planted were green foxtail (Setaria viridis) ("SETVI"), wild oat (Avena fatua) ("AVEFA"), barnyard grass (Enchinochloa crusgalli) ("ECHCG"). Broadleaf weeds utilized were wild mustard (Brassica kaber), also known as Sinapis arvensis, ("SINAR"), velvetleaf (Abutilon theophrasti) ("ABUTH") and morningglory (Ipomoea spp.) ("IPOSS"). Additionally, yellow nutsedge (Cyperus esculentus) ("CYPES"), nutlets were sown. Seeding depths ranged from 1.0 to 1.5 cm and plant densities ranged from 3 to 25 plants per row depending on individual plant species.
(§2) The flats were placed into a greenhouse and watered overhead by sprinkling. The greenhouse environmental systems provided the plants with natural and artificial (via metal halide lamps) lighting to attain 14 hours of light per day. Day and night temperatures were maintained at 29° and 21° C. respectively. The plants were grown for 10 to 12 days (or to the appropriate growth stage) prior to compound application. Grasses were sprayed at a 3 to 4 leaf stage and broadleaves at a 1 to 2 leaf stage. Yellow nutsedge was 5 to 7 cm tall at application.
(§3) Solutions of the test compounds were prepared by weighing out 18.8 and 74.7 mg for 1 and 4 kg/ha applications respectively, of the test compound into a 60 ml wide-mouth bottle, then dissolving the compound in 14.0 ml of deionized water containing 0.5% v/v Tween 20' (polyoxyethylene sorbitan monolaurate emulsifier) as a surfactant. Additional solvents, not exceeding 2 ml (15% of spray volume), were used if needed to dissolve the compound.
(§4) The plants were sprayed inside an enclosed linear spray table with the nozzle set at 30.5 cm (12 inches) above the foliage.
(§5) Treated plants were then returned to a greenhouse and watered daily without wetting the foliage.
(§6) The degree of weed control was evaluated 17-21 days after application and recorded as percentage of control as compared to the growth of the same species in an untreated control flat of the same. Percent control is the total injury to the plants due to all factors including: inhibited emergence, stunting, malformation, chlorosis and other types of plant injury. The control ratings range from 0 to 100 percent, where 0% represents no effect with growth equal to the untreated control and where 100% represents complete kill.

[2] = tested on: morningglory (Ipomoea spp.) (IPOSS); assay: post-emergent herbicidal test, morningglory; assay type: in vivo; conditions: Ipomoea, post-emergence, read-out: IPOSS percent control
Text: as §1, §2, §3, §4, §5, §6

[3] = tested on: velvetleaf (Abutilon theophrasti) (ABUTH); assay: post-emergent herbicidal test, velvetleaf; assay type: in vivo; conditions: Abutilon theophrasti, post-emergence, read-out: ABUTH percent control
Text: as §1, §2, §3, §4, §5, §6

[4] = tested on: yellow nutsedge (Cyperus esculentus) (CYPES); assay: post-emergent herbicidal test, yellow nutsedge; assay type: in vivo; conditions: Cyperus, post-emergence, read-out: CYPES percent control
Text: as §1, §2, §3, §4, §5, §6

[5] = tested on: green foxtail (Setaria viridis) (SETVI); assay: post-emergent herbicidal test, green foxtail; assay type: in vivo; conditions: Setaria viridis, post-emergence, read-out: SETVI percent control
Text: as §1, §2, §3, §4, §5, §6

[6] = tested on: farnesyl pyrophosphate synthase in daffodil chromoplasts; assay: inhibition of farnesyl pyrophosphate synthase in daffodil chromoplasts (14C-isopentenyl pyrophosphate incorporation); assay type: biochemical, Narcissus pseudonarcissus
Method: The IC50 value may be determined as follows. Daffodil chromoplasts are diluted to a volume of 500 microliters in a buffer containing 0.5M sucrose, 3 mM MgCl2, 1 mM ethylenediaminetetraacetic acid, 20 mM N-tris[hydroxymethyl]methyl-2-aminoethanesulfonic acid, […] N-[2-hydroxyethyl]-piperazine-N'-[2-ethanesulfonic acid], 5 mM L-cysteine, 10 mM sodium fluoride, and 0.1% bovine serum albumin at pH 7.7. The inhibitor to be tested may be dissolved in water other suitable solvent and then added to the reaction mixture. The assay is started by the addition of ^14 C-labeled isopentenyl pyrophosphate (52 Ci/mol) to give a final concentration in the assay of about 3 micromolar. The mixture is incubated at 30° C. with gentle agitation for a period of about 30 min. The reaction may be stopped by the addition of 0.5 mL of saturated NaCl and 2 mL of n-butanol saturated with water. After thorough mixing, the turbid suspensions are centrifuged briefly to separate the layers, and 1 mL of the bright yellow upper butanol layer is added to 10 mL of a suitable scintillation fluid which gives a single phase. The butanol soluble radioactivity is then measured in a scintillation counter.
In addition, the problem of variable quenching differences among different experiments can be essentially eliminated by determining the incorporation of radioactivity relative to controls. Each set of experiments requires two control tubes identical to the test samples except that they contain no inhibitor. One of these is quenched immediately (TO sample) and one is quenched at the end of the normal incubation period (T100 sample).
For each concentration of inhibitor examined the % residual activity is determined from the formula [formula]
Tightly closed daffodil flowers (Narcissus pseudonarcissus) were allowed to open at room temperature. […] Coronae were placed in twice their weight of isolation buffer consisting of 67 mM potassium phosphate, 0.74M sucrose, 5 mM MgCl2, and 0.2% polyvinyl-pyrrolidone at pH 7.6 and were disrupted by 30 seconds of homogenization at high speed in a Waring-type blender. The mixture was filtered through several layers of cheesecloth and 2 layers of 100 micron nylon mesh, and the resulting filtrate was centrifuged at 1000×g for 10 minutes. The pellet was discarded and supernatant was centrifuged at 22,000×g for 20 minutes. […] This solution was centrifuged at 22,000×g for 20 minutes to give orange pellets which were suspended in a buffer of 100 mM tris(hydroxymethyl)aminomethane at pH 7.6 containing 5mM MgCl2 and 2 mM dithiothreitol (1 ml per 10 coronae). This solution was frozen in liquid nitrogen and then stored at -80° C.
Thawed daffodil chromoplasts (100-150 microliters) were diluted to a final volume of 500 microliters in a buffer containing 0.5M sucrose, 3 mM MgCl2, 1 mM ethylenediaminetetraacetic acid, 10 mM N-[2-hydroxyethyl]piperazine-N^1 -[2-ethanesulfonic acid], 5 mM L-cysteine, 10 mM sodium fluoride, and 0.1% bovine serum albumin at pH 7.7. The inhibitor to be tested was dissolved in water or other suitable solvent and was added to the reaction mixture. The assay was started by the addition of ^14 C-labeled isopentenyl pyrophosphate (52 Ci/mol) to give a final concentration in the assay of about 3 micromolar. The mixture was incubated at 30° C. with gentle agitation for a period of about 30 minutes. The reaction was stopped by the addition of 0.5 mL of saturated NaCl and 2 mL of n-butanol saturated with water. After thorough mixing, the turbid suspensions were centrifuged briefly to separate the layers, and 1 mL of the bright yellow upper butanol layer was added to 10 mL of a suitable scintillation fluid which gave a single phase. The butanol soluble radioactivity was then measured in a scintillation counter. Each set of experiments required two control tubes identical to the test samples except that they contain no inhibitor.

[7] = tested on: barnyard grass (Enchinochloa crusgalli) (ECHCG); assay: post-emergent herbicidal test, barnyard grass; assay type: in vivo; conditions: Echinochloa crus-galli, post-emergence, read-out: ECHCG percent control
Text: as §1, §2, §3, §4, §5, §6

[8] = tested on: wild mustard (Brassica kaber), also known as Sinapis arvensis (SINAR); assay: post-emergent herbicidal test, wild mustard; assay type: in vivo; conditions: Brassica, post-emergence, read-out: SINAR percent control
Text: as §1, §2, §3, §4, §5, §6

[9] = post-emergent, 1.0 kg/ha (*), 17-21 days after application
[10] = Table I, unit inferred, IC50 values in nM, read-out: IC50
[11] = Table II, unit inferred, IC50 values in nM, read-out: IC50
[12] = post-emergent, 4.0 kg/ha, 17-21 days after application

Row | SMILES | IC50 [6, 10] [nM] | IC50 [6, 11] [nM] | pest or weed control at 1000 g/ha [1, 9] [%] | pest or weed control at 1000 g/ha [2, 9] [%] | pest or weed control at 1000 g/ha [3, 9] [%] | pest or weed control at 1000 g/ha [4, 9] [%] | pest or weed control at 1000 g/ha [5, 9] [%] | pest or weed control at 1000 g/ha [7, 9] [%] | pest or weed control at 1000 g/ha [8, 9] [%] | also measured
1 | O=P(O)(O)C(Cn1ccnc1)P(=O)(O)O [Compound 64] |  |  | 100 | 100 | 75 | 30 | 100 | 98 | 100 | 
2 | CC1CCCN1CC(P(=O)(O)O)P(=O)(O)O (centres unmarked) [Compound 43] | 93 | 93 | 100 | 60 | 30 | 5 | 98 | 98 | 100 | 
3 | CCCN(CCC(C)C)CC(P(=O)(O)O)P(=O)(O)O [Compound 61] | 1000 | 1000 | 100 | 30 | 70 | 10 | 90 | 100 | 90 | 
4 | CNCC(P(=O)(O)O)P(=O)(O)O [Compound 25] | 1680 | 1680 |  |  |  |  |  |  |  | pest or weed control at 1000 g/ha [1]: 100%; pest or weed control at 1000 g/ha [2]: 90%; pest or weed control at 1000 g/ha [3]: 98%; pest or weed control at 1000 g/ha [4]: 85%; pest or weed control at 1000 g/ha [5]: 100%; pest or weed control at 1000 g/ha [7]: 100%; pest or weed control at 1000 g/ha [8]: 100%
5 | CCC1CCCCN1CC(P(=O)(O)O)P(=O)(O)O (centres unmarked) [Compound 53] | 112 | 112 | 98 | 30 | 70 | 5 | 98 | 100 | 90 | 
6 | CONCC(P(=O)(O)O)P(=O)(O)O [Compound 15] | 6310 | 6310 |  |  |  |  |  |  |  | pest or weed control at 1000 g/ha [1]: 0%; pest or weed control at 1000 g/ha [2]: 0%; pest or weed control at 1000 g/ha [3]: 0%; pest or weed control at 1000 g/ha [4]: 0%; pest or weed control at 1000 g/ha [5]: 0%; pest or weed control at 1000 g/ha [7]: 0%; pest or weed control at 1000 g/ha [8]: 0%
7 | O=P(O)(O)C(Cc1ccccn1)P(=O)(O)O [2-(2,2-diphosphonic acid)ethylpyridine, reference compound] |  |  |  |  |  |  |  |  |  | IC50 ([6]; prior-art compounds, daffodil chromoplasts, read-out: IC50 value): 52 nM

The next lines start with results.

Row | IC50 [6, 10] [nM] | IC50 [6, 11] [nM] | SMILES | pest or weed control at 1000 g/ha [1, 9] [%] | pest or weed control at 1000 g/ha [2, 9] [%] | pest or weed control at 1000 g/ha [3, 9] [%] | pest or weed control at 1000 g/ha [4, 9] [%] | pest or weed control at 1000 g/ha [5, 9] [%] | pest or weed control at 1000 g/ha [7, 9] [%] | pest or weed control at 1000 g/ha [8, 9] [%] | also measured
8 | 240 | 240 | CCN(CC)CC(P(=O)(O)O)P(=O)(O)O [Compound 13] | 40 | 10 | 15 | 5 | 80 | 40 | 95 | 
9 | 316 | 316 | CCCCCCNCC(P(=O)(O)O)P(=O)(O)O [Compound 17] | 75 | 10 | 0 | 0 | 60 | 50 | 50 | 
10 | 6600 | 6600 | Cc1cccnc1NCC(P(=O)(O)O)P(=O)(O)O [Compound 31] |  |  |  |  |  |  |  | pest or weed control at 4000 g/ha [1, 12]: 0%; pest or weed control at 4000 g/ha [2, 12]: 0%; pest or weed control at 4000 g/ha [3, 12]: 0%; pest or weed control at 4000 g/ha [4, 12]: 0%; pest or weed control at 4000 g/ha [5, 12]: 0%; pest or weed control at 4000 g/ha [7, 12]: 0%; pest or weed control at 4000 g/ha [8, 12]: 0%
11 | 2510 | 2510 | CC(NCC(P(=O)(O)O)P(=O)(O)O)c1ccc(F)cc1 (centres unmarked) [Compound 44] | 90 | 10 | 60 | 60 | 100 | 100 | 90 | 

Source: patent US5756423A, “Method of controlling plants by inhibition of farnesyl pyrophosphate synthase” (Zeneca Limited, priority 1997, dated 1998)
